In patent US20200032125A1, “COMBINED USES OF A PHOSPHOROUS COMPOUND FOR IRON SULPHIDE DISSOLUTION AND BACTERIAL CONTROL” (RHODIA OPERATIONS, priority 2016, published 2020):

Test system: general heterotrophic bacteria (GHB)
Details: iron sulphide present; same level of THPS as the control

Substance: tetrakis (hydroxymethyl) phosphonium sulphate [THPS]
- bacterial kill (reduction in colony forming units per ml) versus control sample without iron sulphide: bacterial kill is still achieved
